Like-named read-outs stand apart in the source and are kept apart here. No end group written: not given here.

The text below walks through data of patent US4415546A, “Biologically active analogs of ACTH and radioimmuno assay therefor” (priority 1981, dated 1983).

Experiment [1] deals with ACTH antiserum 46-1. The experiment in a line: saturation curves of ACTH antiserum with labeled ACTH. It is filed as binding, rabbit. The method, then: Varying amounts of labeled ACTH were incubated with the antiserum at a final dilution of 1:58,000 in a total volume of 200 μl for 2 hr. at room temperature. Blanks containing no antiserum were included for each point.
25 μl of this washed protein A immunoprecipitant was added and the incubation was continued at 4° for 18 hr. One ml of assay buffer at 4° was added to a series of tubes and the tubes were then centrifuged at 2500 rpm for 15 min in a Beckman model TJ-6 refrigerated centrifuge.
The tubes containing [^3 H]-ACTH were processed similarly, drained, wiped and then 0.5 ml 0.1 N NaOH was added. The tubes were stirred on a Vortex mixer for 20 sec. and incubated at 37° for 30 min. An aliquot (0.4 ml) of the NaOH extract was mixed with phase combininhg scintillant (PCS, Amersham) and counted in a Packard PRIAS scintillation counter.

Experiment [2] has as its target ACTH antiserum. The experiment in a line: standard radioimmunoassay, displacement of [125I]-Tyr23,Phe2,Nle4-ACTH (1-38) from ACTH antiserum. It is filed as binding, rabbit. The procedure:
Standard radioimmunoassays were performed as follows: Unlabeled ACTH or other peptides in a volume of 50 μl were mixed with 50 μl antiserum and 50 μl Protein A immunoprecipitant washed as described above. All components were prepared in assay buffer and incubated at 4° for 24 hr. […] One ml of assay buffer was added and the tubes were processed as described above for counting in the Beckman 4000 counter.

In experiment [3] the test system is isolated rat adrenocortical cells. The experiment in a line: isolated rat adrenocortical cell assay (corticosterone production). The format is cell-based.
Experiment [4] deals with steroidogenesis. Conditions: literature values; cited from earlier work.
[5] abbreviates: isolated rat adrenocortical cells, result in words.

For “H-Ser^1 -Tyr-Ser-Met-Glu^5 -His-Phe-Arg-Trp-Gly^10 -Lys-Pro-Val-Gly-Lys^15 -Lys-Arg-Arg-Pro-Val^20 -Lys-Val-Tyr-Pro-Asn^25 -Gly-Ala-Glu-Asp-Glu^30 -Ser-Ala-Glu-Ala-Phe^35 -Pro-Leu-Glu-Phe^39 -Oh [ACTH]”, in experiment [1] (from saturation curves, antiserum dilution 1:58,000, read-out: apparent dissociation constant for the interaction with antiserum 46-1), the Kd was found to be 0.096 ± 0.016 nM. Besides, the IC50 in experiment [2] (preincubation of the antiserum with the competing peptide, read-out: value for 50% displacement of radioligand) is 0.0203 ± 0.0033 nM. Also, the “equivalents of unlabeled hormone for 50% displacement of the radioligand” value is “less than one equivalent” in experiment [2] (under the preincubation conditions) and “one equivalent” in experiment [2] (without preincubation).
Turning to Phe^2, Nle^4 -ACTH-(1-38), in experiment [3] (setting [5]), the “maximal stimulation of corticosterone production compared with human ACTH” value is “same maximal degree as human ACTH” and the “steroidogenic potency compared with ACTH” value is recorded as “as potent as ACTH”.
Take “[^125 I]-Tyr^23,Phe^2,Nle^4 -ACTH (1-38)”: the EC50 in experiment [3] (corticosterone production, 37° for 1 hr, non-linear least squares analysis, read-out: concentration required for half maximal stimulation of steroidogenesis) amounted to 0.0407 ± 0.0069 nM. Moreover, in experiment [3] (setting [5]), the “steroidogenic potency compared with ACTH” value was “indistinguishable from that of ACTH”. Also, in experiment [1] (saturation binding, no preincubation, read-out: concentration needed for half-maximal binding of the radioligand), the Kd came out at 0.096 ± 0.016 nM.
“[^125 I]ACTH: 125I labelled natural ACTH prepared by a lactoperoxidase process (McIlhinney and Schulster) (SYSMEHFRWGKPVGKKRRPVKVYPNGAEDESAEAFPLEF; also: 125I label (lactoperoxidase); UniProt P01189 138-176, looked up)”: in experiment [4], the “steroidogenic activity / potency relative to natural ACTH” value is 50%.
Take “monoiodo Tyr^23,Phe^2,Nle^4 -ACTH (1-38)”: the “steroidogenic potency compared with ACTH” value in experiment [3] (setting [5]) was “equipotent with ACTH”. Besides, the “displacement curve compared with ACTH” value in experiment [2] (result in words) is given as “identical”.
